pIC50, pKd: −log10 of the molar value.
Experiments:
[1] = system: primary CD34+ cells from AML patients; assay: CFU-E colony-forming unit assay, AML patients; assay type: cell-based; details: Homo sapiens
Method: Considering the inhibitory capacity of UCM-13369 on AML cell lines (shown in Figure 3A), the therapeutic potential was assessed in primary CD34+ cells from AML patients. Two ex vivo models were used from AML patients and healthy donors: CD34+ liquid HSC (hematopoietic stem cell) culture as a short-term model and CFU-E (colony-forming unit–erythroid) as a midterm model.
The test compound was diluted in PBS. […]
Primary cells. 1x10^6/mL total mononuclear bone marrow cells (as source of CD34+ HSCs) of healthy donors and AML patients were used. They were cultured using Stem SpanTM supplement with pencillin/streptomycin (500 U/ml), TPO (10 µg/mL), SCF (10 µg/mL), FLT3 (10 µg/mL), IL-6 (10 µg/mL) and IL-3 (10 µg/mL). After 24 h fresh medium was added. After 72 h in maintenance cells were ready to start the assays. All cells wer e maintained at 37 °C in a humidified incubator in an atmosphere of 5% CO2.
Colonospheres, mamospheres and colony formation unit assays. 30.000 cells per well of MCF-7 cells (mamos pheres), HCT-116 cells (colonospheres) and CD34+ cells from patients (colony formation units) were seeded in serum free non- adherent medium or […]
MethoCult (Stem Cell). […]

NPM1 C-end C+ = biological target: T1, NPM1 C-end C+ (Homo sapiens, UniProt P06748); assay: Isothermal titration calorimetry, NPM1 C-end C+; assay type: binding; details: ITC
T1 construct: the C-end domain (residues 225- 294); 6xHis (N); made in house; host or cells: E. coli BL21(DE3)
T1 sequence (P06748 with tags, fused parts or gaps limits assumed): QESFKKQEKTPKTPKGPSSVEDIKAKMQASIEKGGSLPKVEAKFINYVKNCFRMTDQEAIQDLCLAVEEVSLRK
Description: To confirm a direct interaction of UCM-13369 with NPM1 and to address which domain of the protein would be responsible for binding the compound, pure protein samples of the pentameric N-end domain of NPM1, along with the C-terminal DNA-binding domains of WT and mutant NPM1 C+, were used in calorimetry assays. […] This is indicative of a lower diversity in the chemical environment of amide protons consistent with the previously reported protein unfolding.[29] […] On the other hand, the pentameric construct of the NPM1 N-end, which lacks the AML-related region, yielded a much lower binding affinity (KD ca. 100 μM range, Figure 3D).
ITC experiments were performed in a Nano ITC Low Volume (TA Instruments) at 25 °C. […]
The purity of the protein samples was checked by SDS–PAGE analysis (Figure S3) and protein quantification was performed using the Bradford protein assay.5 NPM molar concentration was expressed as the pentameric form for NPM1 WT N-end and as a monomer for NPM1 C-end WT and mutant. […]
After extraction with acetonitrile and acidification, samples were desalted and concentrated with C18 tips. Mass spectra were recorded in a Hybrid Quadrupole-Orbitrap™ Mass Spectrometer (Thermo Scientific, Waltham, Massachusetts, USA)

[2] = In vivo pharmacokinetic study; parameters: species or system mouse; details: single intraperitoneal administration, 25 mg/kg, up to 6 h
Method: Based on the encouraging results obtained in ex vivo models of AML, we further assessed the therapeutic potential of the new NPM1 inhibitor in vivo. Prior to the evaluation of the compound in an animal model of AML, in vivo pharmacokinetic studies were addressed. Following a single intraperitoneal administration of UCM-13369 at a dose of 25 mg/kg, levels of 200–600 μg/L were detected in mouse peripheral blood up to 6 h (Figure 6A). Plasma protein binding of the compound in mouse serum was measured using an equilibrium dialysis assay, indicating a bound fraction of 83 ± 1%. Next, the efficacy of the compound was evaluated in immunodeficient mice after injection of OCI-AML3-ffLuc-GFP cells as an AML animal model.
For the pharmacokinetic study of UCM-13369, after injecting 25 mg/kg dose of the compound, samples of blood were withdrawn at different times (30, 60, 120, 240, 360 min), and the presence of tested compound was analyzed by HPLC-MS. The area of the molecular peak allowed us to calculate the concentration of the compound present in mice serum at each time.

## COc1ccc(C2Cc3[nH]c4ccccc4c3C(CCNCC3CC3)C2N)cc1 (stereo not shown) [4b, 4-{2-[(Cyclopropylmethyl)amino]ethyl}-2-(4-methoxyphenyl)-2,3,4,9-tetrahydro-1H-carbazol-3-amine]
[1]
  pIC50: 6.52
NPM1 C-end C+; 25 °C, NPM1 C-end C+
  pKd: 4.82
NPM1 C-end C+; C+ variant vs WT domain
  Higher affinity of NPM1 C-end C+ than WT domain: 2 fold
[2]
  Levels in mouse peripheral blood: 200 to 600 ng/mL
